Experiments:
[1] = tested on: several mammalian cell types; conditions: cited from earlier work
neonatal cardiomyocytes = assay: Mitosox mitochondrial superoxide in Angiotensin II-stimulated neonatal cardiomyocytes (flow cytometry); format: cell-based, mouse; conditions: NAC 0.5 mM, Angiotensin II 1 μM for 3 hours, Mitosox fluorescence
Protocol: Ventricles from mouse neonates younger than 72 hours will be dissected, minced, and enzymatically digested with Blendzyme 4 (45 mg/mL, Roche). After enzymatic digestion, cardiomyocytes will be enriched using differential pre-plating for 2 hours, and seeded on fibronectin-coated culture dishes for 24 hours in DMEM (Gibco) with 20% Fetal Bovine Serum (Sigma) and 25 μM Arabinosylcytosine (Sigma). Cardiomyocytes will be stimulated with Angiotensin II (1 μM) for 3 hours in serum-free DMEM containing 0.5% insulin transferrin-selenium (Sigma), 2 mM glutamine, and 1 mg/mL BSA. […] Samples will be analyzed using excitation/emission of 488/625 nm by flow cytometry. Flow data will be analyzed using FCS Express (De Novo Software, Los Angeles, Calif., U.S.A.), and presented as histogram distributions of Mitosox fluorescence intensity.

Compound	penetration of the plasma membrane [1]	effect on the level of mitochondrial ROS after Ang II (neonatal cardiomyocytes)
2′,6′-Dmt-D-Arg-Phe-Lys-NH2	readily penetrates the plasma membrane of several mammalian cell types in an energy-independent manner	
CC(=O)N[C@@H](CS)C(=O)O [N-acetyl cysteine]		not show any effect
